Laboratory results taken from the NIST ThermoML archive (doi:10.1021/acs.jced.7b01011).
Numbers after ± are expanded uncertainties.

Key:
[1] = Molar enthalpy of transition or fusion; conditions: Crystal; DSC
[2] = Crystal; DTA

Question: With `Cc1ccc(NC(=O)/C(=C/Cl)Sc2ccccc2)cc1` [(Z)-3-chloro-2-phenylthio-N-(p-tolyl)acrylamide] as the compound, how does the “Molar enthalpy of transition or fusion” value [1] read?
Answer: The value was 6.16 ± 0.232 kcal/mol.

Question: And the Normal melting temperature [2]?
Answer: Its Normal melting temperature is 108.00 ± 1.1 °C.
